Test systems include CAKI-1 renal; CCRF-CEM leukemia; HOP-62 NSCLC; HS 578T breast; KM12 colon; NCI/ADR-RES ovarian; OVCAR-4 ovarian; SNB-75 CNS; IGROV1 ovarian; A498 renal.
Common to all, as to assay: NCI tumour cell line growth inhibition, 48 h

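Briefly, cells in 96-well plates were exposed to five compound concentrations for 48 h, and endpoints were estimated by linear interpolation. The concentration for 50% growth inhibition is given as GI50. The concentration for full growth arrest is given as TGI.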 A value given as a limit tells only on which side of the number the result lay.

For `O=C(/C=C\c1ccccc1)Oc1ccc(/C=C2\CCC/C(=C\c3ccc(OC(=O)/C=C\c4ccccc4)cc3)C2=O)cc1`, the TGI with CAKI-1 renal, with CCRF-CEM leukemia, with HOP-62 NSCLC, in the assay on HS 578T breast, in the assay with KM12 colon and in the assay with NCI/ADR-RES ovarian was greater than 100 µM in each case. The TGI in the assay with OVCAR-4 ovarian and with SNB-75 CNS was greater than 100 µM in each case.

As to `Cc1ccc(NC(=O)CC/C(CC(=O)C(C)(C)C)=N/NC(=O)c2cc3ccccc3cc2O)cc1C`, the TGI is greater than 100 µM with CAKI-1 renal; 70.1 µM with CCRF-CEM leukemia; greater than 100 µM in the assay with HOP-62 NSCLC; greater than 100 µM in the assay with IGROV1 ovarian; greater than 100 µM in the assay with KM12 colon; greater than 100 µM in the assay with OVCAR-4 ovarian.

Regarding `CC(=O)CCC1(C(=O)OCC(C)C)CCCC1=O` (stereo not given), the TGI in the assay with CAKI-1 renal, in the assay with CCRF-CEM leukemia, in the assay on HOP-62 NSCLC, with HS 578T breast, with IGROV1 ovarian and with KM12 colon was greater than 100 µM throughout. Moreover, the TGI in the assay on NCI/ADR-RES ovarian, in the assay with OVCAR-4 ovarian and in the assay with SNB-75 CNS was greater than 100 µM throughout.

Take `CCC12CCC[C@@]13C=C[C@H](O3)C(C)(C)C2=O` (stereo not given in full): the TGI with CAKI-1 renal, in the assay on CCRF-CEM leukemia, in the assay on HOP-62 NSCLC, in the assay on IGROV1 ovarian, in the assay on OVCAR-4 ovarian and in the assay on SNB-75 CNS was greater than 100 µM in each case.

Take `COc1ccc2oc(=O)c(-c3cc4c(c(C)n3)c(=O)oc3ccc(OC)cc34)cc2c1`: the TGI in the assay on CAKI-1 renal was greater than 100 µM; with CCRF-CEM leukemia, greater than 100 µM; in the assay on HOP-62 NSCLC, greater than 100 µM; in the assay on HS 578T breast it was 83.5 µM; in the assay on IGROV1 ovarian, greater than 100 µM; with KM12 colon, greater than 100 µM. Also, the TGI in the assay with NCI/ADR-RES ovarian and in the assay with SNB-75 CNS was greater than 100 µM in each case.

As to `COC(=O)Nc1cc(OCCCOC(C)=O)c2[nH]c(C(=O)OC)cc2c1C[C@H](O)CO`, the TGI in the assay on A498 renal, in the assay on CAKI-1 renal, with CCRF-CEM leukemia, in the assay with HOP-62 NSCLC, in the assay on IGROV1 ovarian and with KM12 colon was greater than 100 µM throughout. For the same compound, the TGI with NCI/ADR-RES ovarian and with OVCAR-4 ovarian was greater than 100 µM in each case.

In the case of `COc1ccc(/C(C=O)=C(\Cl)c2ccc(OC)c(OC)c2)cc1`, the TGI in the assay on A498 renal, in the assay with CAKI-1 renal, with CCRF-CEM leukemia, in the assay with HOP-62 NSCLC, with IGROV1 ovarian and with OVCAR-4 ovarian was greater than 100 µM in each case. In the assay on SNB-75 CNS, this compound had a TGI of 60.7 µM.

Turning to `COc1ccc(O[C@H](CO)C[C@@H]2COC(C)(C)O2)cc1`, the TGI in the assay on A498 renal, with CAKI-1 renal, in the assay on CCRF-CEM leukemia, in the assay with HOP-62 NSCLC, in the assay on IGROV1 ovarian and in the assay on KM12 colon was greater than 100 µM in each case. For the same compound, the TGI in the assay on NCI/ADR-RES ovarian, in the assay on OVCAR-4 ovarian and with SNB-75 CNS was greater than 100 µM each time.

Turning to `CC1CC(c2ccccc2)=Nc2ccccc2S1` (stereo not given), the TGI with A498 renal, in the assay with CAKI-1 renal, with CCRF-CEM leukemia, in the assay on HOP-62 NSCLC, with IGROV1 ovarian and in the assay with KM12 colon was greater than 100 µM throughout. The TGI with OVCAR-4 ovarian and with SNB-75 CNS was greater than 100 µM in each case.

For the compound `CC(C)C(NCc1c2ccccc2[n+](C)c2ccccc12)C(=O)O` (stereo not given), the TGI worked out at 24.6 µM in the assay with A498 renal; 12.1 µM with CAKI-1 renal; 19.7 µM in the assay on HOP-62 NSCLC; 25.5 µM in the assay on IGROV1 ovarian; 18.7 µM with KM12 colon; 20.7 µM with OVCAR-4 ovarian. This compound also gave a TGI in the assay with SNB-75 CNS of 18 µM.

Consider `O=C1c2ccccc2-c2c1c1ccccc1c(=O)n2CCCNCCNCCCn1c2c(c3ccccc3c1=O)C(=O)c1ccccc1-2`, for which the GI50 with CCRF-CEM leukemia is 0.0142 µM; in the assay on HOP-62 NSCLC, less than 0.0172 µM; in the assay on IGROV1 ovarian, less than 0.0367 µM; in the assay on KM12 colon, less than 0.04 µM; with NCI/ADR-RES ovarian, 0.358 µM; in the assay on OVCAR-4 ovarian, 0.694 µM. Besides, the TGI in the assay on CCRF-CEM leukemia is 0.498 µM; in the assay with HOP-62 NSCLC it was 0.582 µM; with IGROV1 ovarian, greater than 32.9 µM; with KM12 colon it was 0.415 µM; in the assay with NCI/ADR-RES ovarian, 1.75 µM; in the assay on OVCAR-4 ovarian it was 4.56 µM.

In the case of `CCCCCCCCCCCCOCC(COP(=O)(O)OCCN=[N+]=[N-])OC(=O)CCCCCCCCCCC` (stereo not given), the TGI with A498 renal, in the assay on CAKI-1 renal, with HOP-62 NSCLC, in the assay with KM12 colon, in the assay on NCI/ADR-RES ovarian and in the assay with OVCAR-4 ovarian was greater than 100 µM each time.

For `COc1ccc(C(=CCC(C)C2CCC3[C@@H]4C(OC(C)=O)CC5CC(OC(C)=O)CC[C@]5(C)C4CC(OC(C)=O)[C@]23C)c2ccc(OC)cc2)cc1` (stereo not given in full), the TGI in the assay on CCRF-CEM leukemia, in the assay on HOP-62 NSCLC, in the assay on HS 578T breast, with IGROV1 ovarian, with KM12 colon and with NCI/ADR-RES ovarian was greater than 100 µM each time. Besides, the TGI in the assay on OVCAR-4 ovarian and in the assay with SNB-75 CNS was greater than 100 µM in each case.

With `COc1c(OC2OC(CO)C(O)C(O)C2O)cc2c(c1OC)-c1ccc(OC)c(=O)cc1C(NC(C)=O)CC2` (stereo not given), the TGI in the assay with A498 renal, with CAKI-1 renal, in the assay with CCRF-CEM leukemia, in the assay on HOP-62 NSCLC, in the assay with IGROV1 ovarian and in the assay with KM12 colon was greater than 100 µM in each case. Further, the values for the TGI with OVCAR-4 ovarian and in the assay with SNB-75 CNS were greater than 100 µM and greater than 84.4 µM, respectively.

On to `COc1cccc(/C=N/[N-]C(N)=O)c1[O-].[Cu+2].[OH3+]`, for which the TGI worked out at 32.2 µM with A498 renal; 44.3 µM in the assay with HOP-62 NSCLC; 19.6 µM in the assay on IGROV1 ovarian; 28 µM in the assay with KM12 colon; 32.3 µM with OVCAR-4 ovarian; 25.1 µM in the assay with SNB-75 CNS. For the same compound, the GI50 with IGROV1 ovarian is 6.14 µM.

Consider `Cc1ccc(S(=O)(=O)NC(=O)Nc2ccc(C(=O)O)cc2)cc1`, for which the TGI with CCRF-CEM leukemia, in the assay with HOP-62 NSCLC, in the assay on HS 578T breast, in the assay on IGROV1 ovarian, in the assay on KM12 colon and in the assay on NCI/ADR-RES ovarian was greater than 100 µM each time. Moreover, the TGI in the assay on OVCAR-4 ovarian and in the assay with SNB-75 CNS was greater than 100 µM throughout.
